In brackets after ≈: the same amount, converted by molar mass. One block for each compound: values may come before it.
Compound: CCOP(=O)(OCC)SCCSCC
solubility (20 °C): 7.74 mM (≈ 2000 µg/mL)

Compound: CCCN(CC1CC1)c1c([N+](=O)[O-])cc(C(F)(F)F)cc1[N+](=O)[O-]
solubility (20 °C): 0.000288 mM (≈ 0.1 µg/mL)

Compound: COC(=O)c1ccccc1S(=O)(=O)NC(=O)Nc1nc(C)cc(C)n1
solubility (pH 7.0, 25 °C): 0.743 mM (≈ 271 µg/mL)

Compound: CC(Oc1cccc(Cl)c1)C(=O)O (configuration not stated)
solubility (22 °C): 5.98 mM (≈ 1200 µg/mL)

Compound: CCOC1Oc2ccc(OS(C)(=O)=O)cc2C1(C)C (configuration not stated)
logP: 2.7 | solubility (25 °C): 0.259 mM (≈ 74.1 µg/mL)

Compound: CCCC1COC(Cn2cncn2)(c2ccc(Cl)cc2Cl)O1 (configuration not stated)
logP: 3.72 | solubility (20 °C): 0.321 mM (≈ 110 µg/mL)

logP: 5.78
Compound: CCCCC(CC)COC(=O)COc1ccc(Cl)cc1Cl (configuration not stated)

Compound: CN1CSC(=S)N(C)C1
logP: 0.63 | solubility (20 °C): 18.5 mM (≈ 3000 µg/mL)

Compound: CCN(CC)c1c([N+](=O)[O-])cc(C(F)(F)F)c(N)c1[N+](=O)[O-]
logP: 4.3

Compound: CON=C(C(=O)OC)c1ccccc1CON=C(C)c1cccc(C(F)(F)F)c1
logP: 4.5

Compound: C/C=C(\C)C(=O)O[C@H]1C[C@@H](OC(C)=O)[C@@]2(C(=O)OC)CO[C@H]3[C@@H](O)[C@@](C)([C@]45O[C@@]4(C)[C@H]4C[C@@H]5O[C@@H]5OC=C[C@@]54O)[C@H]4[C@]1(CO[C@]4(O)C(=O)OC)[C@@H]32
solubility: 0.361 mM (≈ 260 µg/mL)

Compound: CC(C)=CC1C(C(=O)OCc2coc(Cc3ccccc3)c2)C1(C)C (configuration not stated)
solubility (25 °C): 0.000315 mM (≈ 0.107 µg/mL)

logP: 5.4
Compound: CCCCCCCC(=O)Oc1c(Br)cc(C#N)cc1Br

Compound: CC(C)N(C(=O)CCl)c1ccccc1
solubility (25 °C): 3.31 mM (≈ 700 µg/mL)

Compound: C=CCOC(Cn1ccnc1)c1ccc(Cl)cc1Cl (configuration not stated)
logP: 3.82 | solubility (pH 7.6, 20 °C): 0.606 mM (≈ 180 µg/mL)

Compound: C[C@@H]1[C@@H](c2ccc(Cl)cc2)SC(=O)N1C(=O)NC1CCCCC1 (single isomer, unassigned)
solubility (20 °C): 0.00142 mM (≈ 0.5 µg/mL)

Compound: N#Cc1c(Cl)c(Cl)c(Cl)c(C#N)c1Cl
solubility (25 °C): 0.00226 mM (≈ 0.6 µg/mL)

Compound: CC1OC(C)OC(C)OC(C)O1 (configuration not stated)
logP: 0.12

solubility (20 °C): 0.489 mM (≈ 170 µg/mL)
Compound: CCCCNC1(P(=O)(OCCCC)OCCCC)CCCCC1

solubility (20 °C): 0.0373 mM (≈ 10 µg/mL)
Compound: CSc1nnc(C(C)(C)C)c(=O)n1/N=C/C(C)C

Compound: CC(C)N1C(=O)N(c2ccccc2)CSC1=NC(C)(C)C
logP: 4.3 | solubility (20 °C): 0.00295 mM (≈ 0.9 µg/mL)

Compound: CCCC(=O)N(CSP(=S)(OC)OC)c1ccccc1Cl
logP: 0.56

Compound: CCC(C)(CC)c1cc(NC(=O)c2c(OC)cccc2OC)on1
logP: 3.94

Compound: Fc1ccc(Oc2ccnc3cc(Cl)cc(Cl)c23)cc1
logP: 4.66 | solubility (20 °C): 0.000376 mM (≈ 0.116 µg/mL)

Compound: CCCCOC(=O)[C@@H](C)Oc1ccc(Oc2ccc(C#N)cc2F)cc1
logP: 3.31

Compound: C[n+]1ccc(-c2cc[n+](C)cc2)cc1
solubility (20 °C): 2410 mM

Compound: Cc1ccc2nc3sc(=O)sc3nc2c1
logP: 3.78 | solubility (20 °C): 0.00427 mM (≈ 1 µg/mL)

Compound: COC(=O)c1ccccc1CS(=O)(=O)NC(=O)Nc1nc(OC)cc(OC)n1
logP: 2.18

Compound: CC(C)=CC1C(C(=O)OCc2cccc(Oc3ccccc3)c2)C1(C)C (configuration not stated)
logP: 6.01 | solubility (25 °C): < 2.77e-05 mM

Compound: Nc1nc[nH]n1
logP: -0.97

Compound: Nc1c(Cl)c(F)nc(OCC(=O)O)c1Cl
solubility (pH 9.2, 20 °C): 0.357 mM (≈ 91 µg/mL)

Compound: CCC(C)(NC(=O)c1cc(Cl)c(C)c(Cl)c1)C(=O)CCl (configuration not stated)
logP: 3.76

Compound: COC(=O)N(OC)c1ccccc1COc1ccn(-c2ccc(Cl)cc2)n1
logP: 3.99

Compound: CC1=C(C(=O)Nc2ccccc2)SCCO1
solubility (20 °C): 0.672 mM (≈ 158 µg/mL)

Compound: O=C(Nc1ccccc1-c1ccc(Cl)cc1)c1cccnc1Cl
logP: 2.96

Compound: CN/C(=N\[N+](=O)[O-])NCc1cnc(Cl)s1
logP: 0.7

Compound: Nc1c(Cl)c(Cl)nc(C(=O)O)c1Cl
logP: 1.9

Compound: CCOC(=O)COc1cc(-c2nn(C)c(OC(F)F)c2Cl)c(F)cc1Cl
logP: 3.49

Compound: CN(C)C(=S)SSC(=S)N(C)C
logP: 1.73

Compound: CCSC(=O)N(CC)C1CCCCC1
logP: 3.88

Compound: CC1=C(C(=O)Nc2ccccc2)S(=O)(=O)CCO1
logP: 0.77 | solubility (25 °C): 4.43 mM (≈ 1180 µg/mL)

Compound: COC(=O)N(C(=O)N1CO[C@@]2(C(=O)OC)Cc3cc(Cl)ccc3C2=N1)c1ccc(OC(F)(F)F)cc1
logP: 4.65

Compound: O=[N+]([O-])c1cc(C(F)(F)F)c(Cl)c([N+](=O)[O-])c1Nc1ncc(C(F)(F)F)cc1Cl
logP: 4.01

Compound: O=C(Nc1ccccc1)Nc1cnns1
logD (pH 7.3): 1.77

Compound: COC(=O)c1ccccc1S(=O)(=O)NC(=O)N(C)c1nc(C)nc(OC)n1
solubility (pH 5.0, 25 °C): 0.126 mM (≈ 50 µg/mL)

Compound: C#CCOS(=O)OC1CCCCC1Oc1ccc(C(C)(C)C)cc1 (configuration not stated)
solubility (25 °C): 0.00143 mM (≈ 0.5 µg/mL)

Compound: CC1(C(=O)Nc2ccc(O)c(Cl)c2Cl)CCCCC1
logP: 3.51

Compound: CCC(CC)Nc1c([N+](=O)[O-])cc(C)c(C)c1[N+](=O)[O-]
logP: 5.2 | solubility (20 °C): 0.00107 mM (≈ 0.3 µg/mL)

Compound: C[n+]1ccc(-c2cc[n+](C)cc2)cc1.[Cl-].[Cl-]
logP: -4.5 | solubility (20 °C): 2720 mM

Compound: N#CN
logP: -0.82 | solubility (20 °C): 11900 mM (≈ 500000 µg/mL)

Compound: CCN(Cc1ccc(Cl)nc1)/C(=C/[N+](=O)[O-])NC
logP: -0.66

solubility (20 °C): 0.513 mM (≈ 95 µg/mL)
Compound: N#CCON=C(C#N)c1ccccc1

Compound: O=[N+]([O-])/N=C1\NCCN1Cc1ccc(Cl)nc1
logP: 0.57

Compound: Clc1ccc(C2(Cn3cncn3)CC(Br)CO2)c(Cl)c1 (configuration not stated)
logP: 3.24 | solubility (25 °C): 0.133 mM (≈ 50 µg/mL)

Source: the OPERA property sets (Mansouri et al. 2018)
